Results taken from patent US20240408218A1, “CONJUGATES OF GLUCAGON AND AMPK ACTIVATORS” (KØBENHAVNS UNIVERSITET, priority 2021, published 2024).

Legend:
[1] = Body weight in diet-induced obesity (DIO) mice, 7 days treatment; assay type: in vivo; settings: s.c. once daily
Procedure: C57BL6J male mice, in the following referred to as diet-induced obesity (DIO) mice, were maintained on a high-fat diet (58% energy from fat) and had, for each study, an average body weight of more than 45 gram prior to study start. Mice were either housed individually or double-housed. The mice were maintained on a 12 h dark-light cycle at 21-23° C. Compounds were administered subcutaneously once daily (between 2 pm-5 pm) and food intake (FI) and body weight (BW) measured at the corresponding time. For body composition, measures of fat and lean mass were performed prior to the study (1-3 days prior to study start) and on the final day of the study using an MRI scanner (EchoMRI). The group of mice injected with a vehicle (saline) served as the control group.

[2] = background, Myers et al. Science 2017; cited from earlier work

For `NC(=O)c1ncn([C@@H]2O[C@H](CO)[C@@H](O)[C@H]2O)c1N` [AICAR, 5-Aminoimidazole-4-carboxamide 1-β-D-ribofuranoside, reference compound], the “reduction in body weight (BW %) compared to control group” value ([1]; FIG. 9, conjugate 100 nmol/kg or equimolar doses) was ~4%.
For `O[C@@H]1CO[C@H]2[C@@H]1OC[C@H]2Oc1nc2c(Cl)c(-c3ccc(-c4ccccc4)cc3)cnc2[nH]1` [MK-8722, (3R,3aR,6R,6aR)-6-((6-([1,1′-biphenyl]-4-yl)-7-chloro-3H-imidazo[4,5-b]pyridin-2-yl)oxy)hexahydrofuro[3,2-b]furan-3-ol, reference compound], the “reduction in body weight percentage (BW %)” value ([1]; FIG. 3, conjugate 100 nmol/kg or equimolar doses) is listed as ~4% and the “adverse effect halting use of the compound” value [2] is listed as “induction of cardiac hypertrophy”.
